For 14 compounds, change in vivo and activation results are on record in patent US5008267A, “Pyrimidinedione compounds, method of producing the same and antiarrythmic agents containing the same” (Mitsui Toatsu Chemicals, Incorporated, priority 1988, dated 1991).

For assay [1], the system named is ventricular muscle refractory period. The assay can be described thus: Influence on ventricular muscle refractory period (ERP). The following applies: Canis lupus familiaris, iv, i.v., (W-Y)/Y×100, read-out: ERP (%; extensibility of refractory period). Type of assay: in vivo, mongrel dog. The method, then: (2) Influence on ventricular muscle refractory period Refractory periods were measured in the following manner before and after each of the compounds and d-sotalol shown in Table 2 was separately administered to a vein or a duodenum, and ERP (%; extensibility of refractory period) was calculated from the measured values: ERP (%)=(W-Y)/Y×100 W: Refractory period after administration Y: Refractory period before administration To a mongrel adult dog, 30 mg/kg of pentobarbital was administered intravenously, and after being anesthetized, a pair of silver-silver chloride electrodes separated by 3 mm was sewn on an opened right ventricule, and electrical stimulation was given at an interval of 400 msec at a duration time of 4 msec under a current twice as much as the threshold. Afterward, a small amount of alcohol was injected into a sinus artery in order to extinguish a pacemaker activity, and the ventricular refractory period (ERP) was measured under ventricule pacing. That is, each 1 train comprised 10 stimulations having intervals of 400 msec, and an interval between the trains was usually 400 msec. However, this interval was shortened 10 msec by 10 msec at the time of the refractory period measurement, and an interval between the trains at the time when reaction to the first stimulation of the train disappeared was regarded as the refractory period. In this case, the electrical stimulation was fed in accordance with a program by a heart stimulation device (Diamedical Co., Ltd.; DHM-226-3).

Assay [2] relates to Purkinje fiber of the right ventricular free wall (myocardial action potential). The assay can be described thus: Influence on myocardial action potential duration time (APD75), isolated right ventricular free wall, microelectrode in Purkinje fiber. The following applies: Canis lupus familiaris, 20 min, 20 minutes' incubation; for activation at 1 µg/mL: 1.0 μg/ml; for activation at 1 µg/mL / activation at 3 µg/mL / activation at 10 µg/mL: (B-A)/A×100, read-out: APD75 (%); for activation at 3 µg/mL: 3.0 μg/ml; for activation at 10 µg/mL: 10.0 μg/ml. The assay is classed as cell-based, dog.

Counter-ions that a name gives are not always drawn.

As to `Cn1c(N2CCN(CCOc3ccc([N+](=O)[O-])cc3)CC2)cc(=O)n(C)c1=O` [Compound 53, 1,3-dimethyl-6-{4-[2-(4-nitrophenoxy)ethyl]piperazin-1-yl}-2,4(1H,3H)-pyrimidinedione hydrochloride], in assay [1], the change in vivo at 0.1 mg/kg was 8.8%, the change in vivo at 0.3 mg/kg came out at 23% and the change in vivo at 1 mg/kg was determined as 30.1%. Further, in assay [2], the activation at 1 µg/mL was determined as 8%, the activation at 3 µg/mL came to 22% and the activation at 10 µg/mL turned out to be 43%.

In the case of `Cn1c(N2CCN(CCCOc3ccccc3[N+](=O)[O-])CC2)cc(=O)n(C)c1=O` [Compound 55, 1,3-dimethyl-6-{4-[3-(2-nitrophenoxy)propyl]piperazin-1-yl}-2.4(1H,3H)-pyrimidinedione hydrochloride], in assay [1], the change in vivo at 0.1 mg/kg came out at 0%, the change in vivo at 0.3 mg/kg amounted to 0%, the change in vivo at 1 mg/kg was determined as 6.8% and the change in vivo at 3 mg/kg was found to be 13.6%. In assay [2], the activation at 3 µg/mL was found to be 18% and the activation at 10 µg/mL is 39%.

In the case of `Cn1c(N2CCN(CCc3ccc(C(=O)c4ccccc4)cc3[N+](=O)[O-])CC2)cc(=O)n(C)c1=O` [Compound 137, 1,3-dimethyl-6-{4-[2-(4-benzoyl-2-nitrophenyl)ethyl]piperazin-1-yl}-2,4(1H,3H)-pyrimidinedione oxalate], in assay [1], the change in vivo at 0.1 mg/kg was found to be 6.3%, the change in vivo at 0.3 mg/kg was found to be 6.3%, the change in vivo at 1 mg/kg is 12.5% and the change in vivo at 3 mg/kg came to 18.8%. Further, in assay [2], the activation at 1 µg/mL amounted to 32% and the activation at 3 µg/mL came out at 51%.

Regarding `Cn1c(N2CCN(CCCOc3ccc(Cl)cc3[N+](=O)[O-])CC2)cc(=O)n(C)c1=O` [Compound 140, 1,3-dimethyl-6-{4-[3-(4-chloro-2-nitrophenoxy)propyl]piperazin-1-yl}-2,4(1H,3H)-pyrimidinedione hydrochloride], in assay [1], the change in vivo at 0.1 mg/kg was determined as 0%, the change in vivo at 0.3 mg/kg was 3.55% and the change in vivo at 1 mg/kg is 3.55%. Besides, in assay [2], the activation at 1 µg/mL came to 6%, the activation at 3 µg/mL is 17% and the activation at 10 µg/mL stood at 29%.

As to `Cn1c(N2CCN(CCCOc3ccc([N+](=O)[O-])cc3)CC2)cc(=O)n(C)c1=O` [Compound 35, 1,3-dimethyl-6-{4-[3-(4-nitrophenoxy)propyl]piperazin-1-yl}-2,4(1H,3H)-pyrimidinedione hydrochloride], in assay [1], the change in vivo at 0.1 mg/kg came out at 6%, the change in vivo at 0.3 mg/kg is 12%, the change in vivo at 1 mg/kg worked out at 15.8% and the change in vivo at 3 mg/kg amounted to 25.3%. Further, in assay [2], the activation at 1 µg/mL was found to be 17%, the activation at 3 µg/mL was determined as 22% and the activation at 10 µg/mL was 30%.

Consider `Cn1c(NCCNCCc2ccc([N+](=O)[O-])cc2)cc(=O)n(C)c1=O` [Compound 16, 1,3-dimethyl-6-{2-[2-(4-nitrophenyl)ethylamino]ethylamino}-2,4(1H,3H)-pyrimidinedione oxalate], for which, in assay [1], the change in vivo at 0.1 mg/kg came out at 6.7%, the change in vivo at 0.3 mg/kg is 13.3% and the change in vivo at 1 mg/kg was 13.3%. The activation at 3 µg/mL in assay [2] was 22%.

`Cn1c(N2CCN(CC(=O)c3ccc([N+](=O)[O-])cc3)CC2)cc(=O)n(C)c1=O` [Compound 42, 1,3-dimethyl-6-[4-(4-nitrophenacyl)piperazin-1-yl]-2,4(1H,3H)-pyrimidinedione hydrochloride]: in assay [1], the change in vivo at 0.1 mg/kg turned out to be 4.6%, the change in vivo at 0.3 mg/kg is 9.4%, the change in vivo at 1 mg/kg was 11.7% and the change in vivo at 3 mg/kg came to 18.4%. In assay [2], the activation at 1 µg/mL worked out at 2%, the activation at 3 µg/mL was determined as 10% and the activation at 10 µg/mL stood at 17%.

In the case of `CCN(CCNc1cc(=O)n(C)c(=O)n1C)CCc1ccc([N+](=O)[O-])cc1` [Compound 21], in assay [1], the change in vivo at 0.1 mg/kg was 7%, the change in vivo at 0.3 mg/kg turned out to be 10%, the change in vivo at 1 mg/kg came to 14% and the change in vivo at 3 mg/kg worked out at 14%. In addition, in assay [2], the activation at 1 µg/mL was 13%, the activation at 3 µg/mL was found to be 27% and the activation at 10 µg/mL was 37%.

As to `CC(C)NC[C@@H](O)c1ccc(NS(C)(=O)=O)cc1` [d-sotalol, reference compound], in assay [1], the change in vivo at 0.1 mg/kg was 1.7%, the change in vivo at 0.3 mg/kg is 6.7%, the change in vivo at 1 mg/kg was 8.7% and the change in vivo at 3 mg/kg is 15.5%. Besides, in assay [2] (0.3 μg/ml, (B-A)/A×100), the activation at 0.3 µg/mL was determined as 0%. Also, in assay [2], the activation at 1 µg/mL was 3%, the activation at 3 µg/mL worked out at 7.4% and the activation at 10 µg/mL was 15.8%.

Take `Cn1c(N2CCN(CCCOc3cccc([N+](=O)[O-])c3)CC2)cc(=O)n(C)c1=O` [Compound 38, 1,3-dimethyl-6-{4-[3-(3-nitrophenoxy)propyl]piperazin-1-yl}-2,4(1H,3H)-pyrimidinedione hydrochloride]: in assay [1], the change in vivo at 0.1 mg/kg came out at 0%, the change in vivo at 0.3 mg/kg came out at 0%, the change in vivo at 1 mg/kg was 7% and the change in vivo at 3 mg/kg was found to be 14%. Further, in assay [2], the activation at 1 µg/mL stood at 15% and the activation at 3 µg/mL was found to be 34%.

For the compound `Cn1c(N2CCN(CC(O)c3ccc([N+](=O)[O-])cc3)CC2)cc(=O)n(C)c1=O` (stereo not drawn) [Compound 44, 1,3-dimethyl-6-{4-[2-hydroxy-2-(4-nitrophenyl)ethyl]piperazin-1-yl}-2,4-(1H,3H)-pyrimidinedione hydrochloride], in assay [1], the change in vivo at 0.1 mg/kg was determined as 0%, the change in vivo at 0.3 mg/kg came to 7.7%, the change in vivo at 1 mg/kg stood at 19.9% and the change in vivo at 3 mg/kg was determined as 27.8%. In assay [2], the activation at 1 µg/mL turned out to be 5%, the activation at 3 µg/mL came out at 13% and the activation at 10 µg/mL stood at 21%.

Consider `CC(=O)c1cc([N+](=O)[O-])ccc1OCCCN1CCN(c2cc(=O)n(C)c(=O)n2C)CC1` [Compound 76, 1,3-dimethyl-6-{4-[3-(2-acetyl-4-nitrophenoxy)propyl]piperazin-1-yl}-2,4(1H,3H)-pyrimidinedione oxalate], for which, in assay [1], the change in vivo at 0.1 mg/kg came out at 2.4%, the change in vivo at 0.3 mg/kg is 4.3%, the change in vivo at 1 mg/kg was found to be 12.6% and the change in vivo at 3 mg/kg was 16.5%. Besides, in assay [2], the activation at 1 µg/mL turned out to be 16% and the activation at 3 µg/mL came out at 21%.

As for `Cn1c(N2CCN(CCCOc3ccc([N+](=O)[O-])c(C(F)(F)F)c3)CC2)cc(=O)n(C)c1=O` [Compound 150, 1,3-dimethyl-6-{4-[3-(3-trifluoromethyl-4-nitrophenyloxy)propyl]piperazin-1-yl}-2,4(1H,3H)-pyrimidinedione oxalate], in assay [1], the change in vivo at 0.1 mg/kg was found to be 0%, the change in vivo at 0.3 mg/kg came to 0%, the change in vivo at 1 mg/kg was 6.3% and the change in vivo at 3 mg/kg is 6.3%. Further, the activation at 3 µg/mL in assay [2] turned out to be 16%.

As for `COc1cc([N+](=O)[O-])ccc1OCCCN1CCN(c2cc(=O)n(C)c(=O)n2C)CC1` [Compound 164, 1,3-dimethyl-6-{4-[3-(2-methoxy-4-nitrophenyloxy)propyl]piperazin-1-yl}-2,4(1H,3H)-pyrimidinedione hydrochloride], in assay [1], the change in vivo at 0.1 mg/kg turned out to be 0%, the change in vivo at 0.3 mg/kg was determined as 7.7%, the change in vivo at 1 mg/kg worked out at 15.4% and the change in vivo at 3 mg/kg was determined as 15.4%. Further, in assay [2], the activation at 3 µg/mL turned out to be 8% and the activation at 10 µg/mL worked out at 12%.
